Reference: US10550143B2, “C,O-spiro aryl glycoside compounds, preparation therefor and use thereof” (SHANGHAI INSTITUTE OF MATERIA MEDICA, CHINESE ACADEMY OF …, priority 2015, dated 2020)

How the values were obtained:
[1] = target: T1, hSGLT1 (Homo sapiens, UniProt P13866); assay: In vitro SGLT1 inhibition (hSGLT1 IC50 test); format: cell-based; conditions: read-out: IC50 ± SD SGLT1
T1 sequence (P13866 1-664): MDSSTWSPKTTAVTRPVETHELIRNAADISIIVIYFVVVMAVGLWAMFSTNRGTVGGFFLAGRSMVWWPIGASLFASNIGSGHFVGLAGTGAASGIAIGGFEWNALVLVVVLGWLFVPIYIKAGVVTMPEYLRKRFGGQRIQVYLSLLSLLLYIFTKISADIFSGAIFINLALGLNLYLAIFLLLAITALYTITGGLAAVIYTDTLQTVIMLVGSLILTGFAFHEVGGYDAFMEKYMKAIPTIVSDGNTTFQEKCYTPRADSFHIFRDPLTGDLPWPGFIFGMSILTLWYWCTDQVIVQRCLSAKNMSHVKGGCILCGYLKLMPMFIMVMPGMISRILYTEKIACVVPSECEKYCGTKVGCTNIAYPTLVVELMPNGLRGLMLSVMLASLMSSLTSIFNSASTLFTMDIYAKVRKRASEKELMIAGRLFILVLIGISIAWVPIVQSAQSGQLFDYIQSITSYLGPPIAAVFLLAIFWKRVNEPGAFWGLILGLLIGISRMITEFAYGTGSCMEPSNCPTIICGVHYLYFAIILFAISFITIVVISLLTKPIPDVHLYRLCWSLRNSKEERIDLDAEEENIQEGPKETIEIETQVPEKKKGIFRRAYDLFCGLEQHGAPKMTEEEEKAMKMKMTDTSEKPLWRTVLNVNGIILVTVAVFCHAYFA

[2] = tested on: SD rats; assay: Acute single administration, urinary glucose changes in SD rats; format: in vivo, rat; parameters: Urine glucose concentration / The total amount of glucose excreted: unit not given here; conditions: 1 mg/kg oral, after 24 h
Description: (1) Acutely Administering Compound to Observed the Urinary Glucose Changes in SD Rats
Thirty-eight male normal SD rats were selected and randomly divided into 5 groups according to body weight and blood glucose, 6-8 in each group. […] After oral gavage, the rats were placed in rats metabolic cages, and urine was collected after 24 h, and the urine volume was recorded, the urine sugar concentration was determined, and urinary sugar content was calculated according to the following formula. Urine content=urinary sugar concentration×urine volume
Glucose levels in urine are measured by the glucose assay kit.
Data were expressed as mean±standard deviation (x±s), and Student's t test was used for statistical analysis of the data, p<0.05 was considered statistically significant.

[3] = Pharmacokinetics in rats after intragastric and intravenous administration; format: in vivo, rat
Description: Six healthy rats were randomly divided into two groups, three for each group. A28 was administered orally and intravenously, and the drug was grounded and dissolved in 0.5% MC. Fasted for 8 h before testing.
Three rats were intravenously administrated with 2 mg/kg of test compound A28, and 3 rats were orally administered with 10 mg/kg of test compound A28. Blood was collected from the orbital venous plexus of rats before administration, at 15 min, 30 min, 1 hour, 2 hours, 4 hours, 8 hours, 24 hours after administration, respectively. Blood sample were taken from three rats at each time point for each dose, and the plasma was immediately centrifuged.

[4] = tested on: db/db mice; assay: Chronic administration, random blood glucose in db/db mice; format: in vivo, mouse; conditions: for random blood glucose Pre: before administration; for Hypoglycemic rate % week 1 / Hypoglycemic rate % week 2 / Hypoglycemic rate % week 3 / Hypoglycemic rate % week 4: random blood glucose
Description: Oral gavage administrated, daily dose volume was 10 mL/kg, administered once daily. Administration time was 9: 00-10:00 daily, and the administration period was 5 weeks.
The random blood glucose of mice in the normal control group, model control group, test substance administration group and positive control group were determined on the 7th, 14th, 21st, 28th day (9: 00-10:00) every week after the first administration, and food was removed and after 6 hours of starvation, the fasting blood glucose in each group was measured. Free drinking during the hunger process. The rate of decrease of blood glucose was calculated according to the following formula: Average hypoglycemic rate %=(Blood glucose of model control group−Blood glucose of administration group)/Model control group×100%

[5] = rat, plasma, po, gavage 10 mg/kg

IC50 [1]: 2060 ± 210 nM
AUC(0-t) ([3]; rat, plasma, intravenous, vein 2 mg/kg): 252 ng·h/mL
AUC(0-inf) ([3]; rat, plasma, iv, vein 2 mg/kg): 252 ng·h/mL
Cmax ([3]; rat, plasma, iv, vein 2 mg/kg): 201 ng/mL
MRT ([3]; rat, plasma, iv, vein 2 mg/kg): 0.982 h
Tmax ([3]; rat, plasma, iv, vein 2 mg/kg): 0.25 h
half-life ([3]; rat, plasma, iv, vein 2 mg/kg): 1.53 h
bioavailability ([3]; rat, plasma, oral, gavage 10 mg/kg vs vein 2 mg/kg, dose normalized, read-out: F (absolute bioavailability)): 107%
AUC(0-inf) [3, 5]: 1350 ng·h/mL
AUC(0-t) [3, 5]: 1350 ng·h/mL
Cmax [3, 5]: 273 ng/mL
MRT [3, 5]: 3.79 h
Tmax [3, 5]: 1.67 h
half-life [3, 5]: 1.69 h
CLz ([3]; vein 2 mg/kg): 134 mL/min/kg
SMILES: CCc1ccc(Cc2cc3c(cc2Cl)CO[C@]32O[C@H](C)[C@@H](O)[C@H](O)[C@H]2O)s1 [Example A28, (1S,3′R,4′S,5′S,6′R)-6′-methyl-6-((5-ethylthienyl)-2-methyl)-5-chloro-3′,4′,5′,6′-tetrahydro-3H-spiro[isobenzofuran-1,2′-pyran]-3′,4′,5′-triol]
The total amount of glucose excreted ([2]; Table 3): 337.10 ± 313.7
Urine glucose concentration ([2]; Table 3): 76.29 ± 71.20
Urine volume ([2]; Table 3, in mL): 24 ± 6.63
random blood glucose week 1 ([4]; 0.3 mg/kg once daily oral): 16.9 ± 1.3 mmol/L
random blood glucose week 2 ([4]; 0.3 mg/kg once daily oral): 15.7 ± 1.3 mmol/L
random blood glucose week 3 ([4]; 0.3 mg/kg once daily oral): 16.7 ± 1.5 mmol/L
random blood glucose week 4 ([4]; 0.3 mg/kg once daily oral): 19.1 ± 1.6 mmol/L
random blood glucose Pre ([4]; 0.3 mg/kg once daily oral): 17.9 ± 1.4 mmol/L
random blood glucose week 1 ([4]; 1 mg/kg once daily oral): 16.1 ± 1.0 mmol/L
random blood glucose week 2 ([4]; 1 mg/kg once daily oral): 16.3 ± 1.2 mmol/L
random blood glucose week 3 ([4]; 1 mg/kg once daily oral): 15.9 ± 1.1 mmol/L
random blood glucose week 4 ([4]; 1 mg/kg once daily oral): 15.1 ± 1.4 mmol/L
random blood glucose Pre ([4]; 1 mg/kg once daily oral): 16.8 ± 1.2 mmol/L
random blood glucose week 1 ([4]; 3 mg/kg once daily oral): 14.7 ± 0.9 mmol/L
random blood glucose week 2 ([4]; 3 mg/kg once daily oral): 13.0 ± 0.8 mmol/L
random blood glucose week 3 ([4]; 3 mg/kg once daily oral): 12.4 ± 1.0 mmol/L
random blood glucose week 4 ([4]; 3 mg/kg once daily oral): 13.2 ± 0.9 mmol/L
random blood glucose Pre ([4]; 3 mg/kg once daily oral): 18.7 ± 1.2 mmol/L
random blood glucose week 1 ([4]; 10 mg/kg once daily oral): 12.9 ± 0.6 mmol/L
random blood glucose week 2 ([4]; 10 mg/kg once daily oral): 10.6 ± 0.5 mmol/L
random blood glucose week 3 ([4]; 10 mg/kg once daily oral): 9.1 ± 0.4 mmol/L
random blood glucose week 4 ([4]; 10 mg/kg once daily oral): 9.7 ± 0.7 mmol/L
random blood glucose Pre ([4]; 10 mg/kg once daily oral): 18.3 ± 1.6 mmol/L
Hypoglycemic rate % week 1 ([4]; 0.3 mg/kg once daily oral): 14.0%
Hypoglycemic rate % week 2 ([4]; 0.3 mg/kg once daily oral): 19.1%
Hypoglycemic rate % week 3 ([4]; 0.3 mg/kg once daily oral): 18.0%
Hypoglycemic rate % week 4 ([4]; 0.3 mg/kg once daily oral): 7.8%
Hypoglycemic rate % week 1 ([4]; 1 mg/kg once daily oral): 17.9%
Hypoglycemic rate % week 2 ([4]; 1 mg/kg once daily oral): 16.0%
Hypoglycemic rate % week 3 ([4]; 1 mg/kg once daily oral): 21.8%
Hypoglycemic rate % week 4 ([4]; 1 mg/kg once daily oral): 27.0%
Hypoglycemic rate % week 1 ([4]; 3 mg/kg once daily oral): 25.4%
Hypoglycemic rate % week 2 ([4]; 3 mg/kg once daily oral): 33.1%
Hypoglycemic rate % week 3 ([4]; 3 mg/kg once daily oral): 39.0%
Hypoglycemic rate % week 4 ([4]; 3 mg/kg once daily oral): 36.6%
Hypoglycemic rate % week 1 ([4]; 10 mg/kg once daily oral): 34.3%
Hypoglycemic rate % week 2 ([4]; 10 mg/kg once daily oral): 45.3%
Hypoglycemic rate % week 3 ([4]; 10 mg/kg once daily oral): 55.3%
Hypoglycemic rate % week 4 ([4]; 10 mg/kg once daily oral): 53.1%
